Reference: patent US20120129811A1, “TRICYCLIC INHIBITORS OF PRO-MATRIX METALLOPROTEINASE ACTIVATION” (priority 2010, published 2012)
Counter-ions that a name gives are not always drawn.

Tests used:
[1] = target: T1, full-length proMMP9(1-707) activation by catalytic MMP3 (Homo sapiens, UniProt P14780, R574P); experiment: proMMP9/MMP3 P126 Activation Assay; type: biochemical
T1 construct: made in house; host or cells: proMMP9: HEK293 (secreted); MMP3: E. coli
Procedure: proMMP9/MMP3 P126 Activation Assay
The reaction volume was 50 μL. […] Reactivity of residual MMP3 towards P-126 substrate was minimal under these conditions.

[2] = target: T2, proMMP13(1-268) (SEQ ID NO:7) (Homo sapiens, UniProt P45452); experiment: ThermoFluor binding assay with proMMP13(1-268)
T2 construct: 6xHis (C); made in house; host or cells: HEK293 (transient, secreted)
Procedure: The ThermoFluor® (TF) assay is a 384-well plate-based binding assay that measures thermal stability of proteins (Biomol Screen 2001, 6, 429-40; Biochemistry 2005, 44, 5258-66). The experiments were carried out using instruments available from Johnson & Johnson Pharmaceutical Research & Development, LLC. TF dye used in all experiments was […] (1,8-ANS) (Invitrogen: A-47).
Compounds were arranged in a pre-dispensed plate (Greiner Bio-one: 781280), wherein compounds were serially diluted in 100% DMSO across 11 columns within a series. Columns 12 and 24 were used as DMSO reference and contained no compound. For multiple compound concentration-response experiments, the compound aliquots (50 nL) were robotically predispensed directly into black 384-well polypropylene PCR microplates (Abgene: TF-0384/k) using a Cartesian Hummingbird liquid handler (DigiLab, Holliston, Mass.). Following compound dispense, protein and dye solutions were added to achieve the final assay volume of 3 μL. The assay solutions were overlayed with 1 μL of silicone oil (Fluka, type DC 200: 85411) to prevent evaporation.
Assay plates were robotically loaded onto a thermostatically controlled PCR-type thermal block and then heated from 40 to 90° C. at a ramp-rate of 1° C./min for all experiments. Fluorescence was measured by continuous illumination with UV light (Hamamatsu LC6) supplied via fiber optics and filtered through a band-pass filter (380-400 nm; >60D cutoff). Fluorescence emission of the entire 384-well plate was detected by measuring light intensity using a CCD camera (Sensys, Roper Scientific) filtered to detect 500±25 nm, resulting in simultaneous and independent readings of all 384 wells. A single image with 20-sec exposure time was collected at each temperature, and the sum of the pixel intensity in a given area of the assay plate was recorded vs temperature and fit to standard equations to yield the Tm (J Biomol Screen 2001, 6, 429-40).
Thermodynamic parameters necessary for fitting compound binding for each proMMP were estimated by differential scanning calorimetry (DSC) and from ThermoFluor® data. The heat capacity of unfolding for each protein was estimated from the molecular weight and from ThermoFluor® dosing data.
ThermoFluor® with proMMP13(1-268) (SEQ ID NO: 7)
The proMMP13(1-268) (SEQ ID NO:7) protein sample preparations included a desalting buffer exchange step via a PD-10 gravity column (GE Healthcare). The desalting buffer exchange was performed prior to diluting the protein to the final assay concentration of 3.5 μM. The concentration of proMMP13(1-268) (SEQ ID NO:7) was estimated spectrophotometrically based on a calculated extinction coefficient of ε280=37000 M^−1 cm^−1, a calculated molecular weight of 30.8 kDa, and calculated pI of 5.33. ThermoFluor® reference conditions were defined as follows: 100 μg/mL proMMP13(1-268) (SEQ ID NO:7), 25 μM 1,8-ANS, pH 7.0 Buffer (50 mM HEPES pH 7.0, 100 mM NaCl, 0.001% Tween-20, 2.5 mM MgCl2, 300 μM CaCl2). The thermodynamic parameters for proMMP13(1-268) (SEQ ID NO:7) are as follows: Tm (° C.)=67 (+/−0.1), ΔUH(Tm)) (cal mol^−1)=107000(+/−5000), ΔUSTm (cal mol^−1 K^−1)=318, ΔUCp (cal mol^−1 K^−1)=2600.

[3] = target: T3, proMMP9(67-444;ΔFnII) (SEQ ID NO:5) (Homo sapiens, UniProt P14780, DEL216-390); experiment: ThermoFluor binding assay with proMMP9(67-444;ΔFnII)
T3 construct: start methionine (N); made in house; host or cells: E. coli BL21(DE3) RIL
T3 sequence (P14780 with tags, fused parts or gaps DEL216-390): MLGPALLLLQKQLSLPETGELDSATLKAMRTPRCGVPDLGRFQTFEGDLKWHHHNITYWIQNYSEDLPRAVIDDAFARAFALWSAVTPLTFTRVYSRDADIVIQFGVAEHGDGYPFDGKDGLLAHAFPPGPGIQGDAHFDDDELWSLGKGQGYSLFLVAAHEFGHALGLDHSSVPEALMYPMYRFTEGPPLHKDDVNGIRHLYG
Outline: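 Thermal shift of 3.5 μM proMMP9(67-444;ΔFnII), desalted beforehand, with 50 μM 1,8-ANS in 50 mM HEPES pH 7.0, 100 mM NaCl, 2.5 mM MgCl2, 300 μM CaCl2, 0.001% Tween-20. Heated 40–90 °C at 1 °C/min, fluorescence read at 500 nm; binding fitted from Tm shifts using DSC- and ThermoFluor-derived unfolding parameters.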

[4] = target: T4, proMMP9(20-445;ΔFnII) (SEQ ID NO:6) (Homo sapiens, UniProt P14780, DEL216-390); experiment: ThermoFluor binding assay with proMMP9(20-445;ΔFnII)
T4 construct: start methionine (N); made in house; host or cells: E. coli BL21(DE3) RIL
T4 sequence (P14780 with tags, fused parts or gaps DEL216-390): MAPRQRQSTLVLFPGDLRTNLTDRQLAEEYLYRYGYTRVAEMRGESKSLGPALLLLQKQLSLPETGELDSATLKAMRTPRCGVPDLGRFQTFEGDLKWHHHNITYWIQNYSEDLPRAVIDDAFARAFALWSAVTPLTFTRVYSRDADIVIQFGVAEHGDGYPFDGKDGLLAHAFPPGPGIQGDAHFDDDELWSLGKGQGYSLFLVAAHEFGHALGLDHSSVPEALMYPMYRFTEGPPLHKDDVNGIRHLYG
Outline: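 Protein thermal stability was measured with 2.8 μM proMMP9(20-445;ΔFnII) and 50 μM 1,8-ANS in 50 mM HEPES pH 7.0, 100 mM NaCl, 0.001% Tween-20, 2.5 mM MgCl2, 300 μM CaCl2, across serial compound dilutions. Samples were heated 40–90° C at 1° C/min with fluorescence read at 500 nm. Tm was fitted, and binding was derived from thermodynamic parameters obtained by DSC and ThermoFluor.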

T1 sequence (P14780 20-707 R574P): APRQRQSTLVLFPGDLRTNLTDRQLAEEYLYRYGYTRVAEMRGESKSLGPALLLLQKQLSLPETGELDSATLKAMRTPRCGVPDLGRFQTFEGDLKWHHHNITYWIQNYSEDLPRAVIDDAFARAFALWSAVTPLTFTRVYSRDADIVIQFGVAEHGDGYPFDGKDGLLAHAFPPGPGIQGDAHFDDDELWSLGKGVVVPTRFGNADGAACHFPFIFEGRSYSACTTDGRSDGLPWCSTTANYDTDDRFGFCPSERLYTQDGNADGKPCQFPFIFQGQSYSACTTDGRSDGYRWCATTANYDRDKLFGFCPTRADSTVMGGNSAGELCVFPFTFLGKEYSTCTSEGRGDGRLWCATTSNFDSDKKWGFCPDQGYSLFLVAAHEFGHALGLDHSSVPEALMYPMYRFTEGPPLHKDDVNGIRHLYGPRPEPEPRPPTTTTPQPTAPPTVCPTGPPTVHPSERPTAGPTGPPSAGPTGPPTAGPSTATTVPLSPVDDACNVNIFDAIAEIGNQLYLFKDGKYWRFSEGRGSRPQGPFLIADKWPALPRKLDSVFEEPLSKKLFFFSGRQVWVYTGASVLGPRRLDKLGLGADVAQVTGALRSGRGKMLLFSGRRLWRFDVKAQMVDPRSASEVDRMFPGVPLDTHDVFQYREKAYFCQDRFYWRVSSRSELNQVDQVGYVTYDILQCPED

SMILES	IC50 [1]	Kd [2]	Kd [3]	Kd [4]
COc1ccccc1Nc1nc2c(ccc3sc(N)nc32)s1 [Example 1, N^7-(2-Methoxy-phenyl)-benzo[2,1-d;3,4-d′]-bisthiazole-2,7-<diamine.TFA]	2800 nM	7000 nM	810 nM	3600 nM
COc1ccccc1Nc1nc2c(ccc3nc(N)sc32)s1 [Example 2, N^7-(2-Methoxy-phenyl)-benzo[1,2-d;3,4-d′]-bisthiazole-2,7-diamine.TFA]	1300 nM	8700 nM	410 nM	2200 nM
CC(C)Oc1ccc(C(N)=O)cc1Nc1nc2c(ccc3nc(N)sc32)s1 [Example 5, 3-(2-Amino-benzo[1,2-d;3,4-d′]bisthiazol-7-ylamino)-4-isopropoxy-benzamide.TFA]	920 nM	730 nM	410 nM	320 nM
COc1ccc(OC)c(Nc2nc3c(ccc4nc(N)sc43)s2)c1 [Example 8, N^7-(2,5-Dimethoxy-phenyl)-benzo[1,2-d;3,4-d′]-bisthiazole-2,7-diamine.TFA]	1200 nM	1800 nM	680 nM	3100 nM
CC(C)Oc1ccccc1Nc1nc2c(ccc3nc(N)sc32)s1 [Example 9, N^7-(2-Isopropoxy-phenyl)-benzo[1,2-d;3,4-d′]-bisthiazole-2,7-diamine.TFA]	10000 nM	18000 nM	4400 nM	27000 nM
Cc1nc2c(s1)-c1nc(Nc3cc(C(N)=O)ccc3OC(C)C)sc1CC2 [Example 12, 4-Isopropoxy-3-(2-methyl-4,5-dihydro-benzo[1,2-d;3,4-d′]-bisthiazol-7-ylamino)-benzamide.TFA]	1100 nM	6500 nM	3800 nM	1700 nM
COc1ccccc1Nc1nc2c(s1)CCCc1nc(N)sc1-2 [Example 14, N^8-(2-Methoxy-phenyl)-5,6-dihydro-4H-1,7-dithia-3,9-diaza-cyclopenta[e]azulene-2,8-diamine.TFA]	1100 nM	20000 nM	550 nM	2400 nM
Nc1nc2c(ccc3sc(Nc4cccc(C(=O)O)c4)nc32)[nH]1 [Example 15, 3-(7-Amino-6H-imidazo[4′,5′:3,4]benzo[2,1-d]thiazol-2-ylamino)-benzoic acid.TFA]	3500 nM	33000 nM	9900 nM	> 95000 nM
COc1ccccc1Nc1nc2c(ccc3[nH]c(NC(C)=O)nc32)s1 [Example 16, N-[2-(2-Methoxy-phenylamino)-6H-imidazo[4′,5′:3,4]benzo[2,1-d]thiazol-7-yl]-acetamide.TFA]	890 nM	19000 nM	990 nM	5000 nM

Stronger by IC50 [1], values ahead:

IC50 [1]	Kd [2]	Kd [3]	Kd [4]	SMILES
660 nM	11000 nM	290 nM	2400 nM	COc1ccccc1Nc1nc2c(ccc3[nH]c(N)nc32)s1 [Example 6, N^2-(2-Methoxy-phenyl)-6H-imidazo[4′,5′:3,4]benzo[2,1-d]thiazole-2,7-diamine]
130 nM	710 nM	91 nM	940 nM	CC(C)Oc1ccc(C(=O)O)cc1Nc1nc2c(ccc3[nH]c(N)nc32)s1 [Example 10, 3-(7-Amino-6H-imidazo[4′,5′:3,4]benzo[2,1-d]thiazol-2-ylamino)-4-isopropoxy-benzoic acid.HCl]
250 nM	470 nM	720 nM	1300 nM	CC(C)Oc1ccc(C(N)=O)cc1Nc1nc2c(ccc3[nH]c(N)nc32)s1 [Example 11, 3-(7-Amino-6H-imidazo[4′,5′:3,4]benzo[2,1-d]thiazol-2-ylamino)-4-isopropoxy-benzamide.HCl]
420 nM	2200 nM	390 nM	230 nM	Cc1nc2ccc3sc(Nc4cc(C(N)=O)ccc4OC(C)C)nc3c2s1 [Example 13, 4-Isopropoxy-3-(2-methyl-benzo[1,2-d;3,4-d′]bisthiazol-7-ylamino)-benzamide.TFA]
630 nM	3400 nM	550 nM	880 nM	CC(=O)Nc1nc2c(ccc3sc(Nc4cc(C(N)=O)ccc4OC(C)C)nc32)[nH]1 [Example 18, 3-(7-Acetylamino-6H-imidazo[4′,5′:3,4]-benzo[2,1-d]thiazol-2-ylamino)-4-isopropoxy-benzamide.HCl]
350 nM	2200 nM	380 nM	460 nM	Cc1nc2c(ccc3sc(Nc4cc(C(N)=O)ccc4OC(C)C)nc32)[nH]1 [Example 19, 4-Isopropoxy-3-(7-methyl-6H-imidazo[4′,5′:3,4]benzo[2,1-d]thiazol-2-ylamino)-benzamide.HCl]
240 nM	1900 nM	190 nM	1400 nM	Cc1nc2c(ccc3sc(Nc4cc(C(=O)O)ccc4OC(C)C)nc32)[nH]1 [Example 20, 4-Isopropoxy-3-(7-methyl-6H-imidazo[4′,5′:3,4]-benzo[2,1-d]thiazol-2-ylamino)-benzoic acid.HCl]
500 nM	3500 nM	330 nM	410 nM	CC(C)Oc1ccc(C(N)=O)cc1Nc1nc2c(ccc3[nH]c(CO)nc32)s1 [Example 21, 3-(7-Hydroxymethyl-6H-imidazo[4′,5′:3,4]-benzo[2,1-d]thiazol-2-ylamino)-4-isopropoxy-benzamide.HCl]
840 nM	3000 nM	970 nM	590 nM	CC(C)Oc1ccc(C(N)=O)cc1Nc1nc2c(ccc3[nH]c(=O)[nH]c32)s1 [Example 23, 4-Isopropoxy-3-(7-oxo-7,8-dihydro-6H-imidazo[4′,5′:3,4]benzo[2,1-d]thiazol-2-ylamino)-benzamide.TFA]
380 nM	8400 nM	520 nM	1200 nM	Cc1nc2ccc3sc(Nc4cc(C(=O)O)ccc4OC(C)C)nc3c2s1 [Example 24, 4-Isopropoxy-3-(2-methyl-benzo[1,2-d;3,4-d′]bisthiazol-7-ylamino)-benzoic acid.HCl]
